Assays:
human GnRH receptor = target: T1, human GnRH receptor (Homo sapiens, UniProt P30968); test: Radioligand binding, 125I-GnRH-A displacement, membranes of HEK 293 cells with human GnRH receptor; settings: read-out: hGnRH IC50
T1 construct: expressed in transfected cells; host or cells: HEK 293 (hGnRH-R/293, from Dr. Stuart Sealfon)
T1 sequence (P30968 1-328): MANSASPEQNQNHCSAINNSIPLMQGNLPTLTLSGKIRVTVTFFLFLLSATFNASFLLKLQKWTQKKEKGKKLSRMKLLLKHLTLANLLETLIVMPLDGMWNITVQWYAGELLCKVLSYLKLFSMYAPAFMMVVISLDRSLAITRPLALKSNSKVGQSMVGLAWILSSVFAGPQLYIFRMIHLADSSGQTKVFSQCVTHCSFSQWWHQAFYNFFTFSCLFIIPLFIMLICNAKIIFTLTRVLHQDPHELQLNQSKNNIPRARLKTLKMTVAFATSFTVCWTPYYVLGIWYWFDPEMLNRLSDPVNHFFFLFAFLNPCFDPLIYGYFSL
Summary of the method: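 After filtration and PBS washes, bound radioactivity was counted by scintillation and IC50 derived. Identical conditions applied for non-human receptors.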

mouse GnRH receptor = target: T2, mouse GnRH receptor (Mus musculus, UniProt Q01776); test: Radioligand binding, 125I-GnRH-A, 293 cells expressing mouse GnRH receptors; settings: read-out: mGnRH IC50
T2 construct: expressed in transfected cells; host or cells: 293 cells
T2 sequence (Q01776 1-327): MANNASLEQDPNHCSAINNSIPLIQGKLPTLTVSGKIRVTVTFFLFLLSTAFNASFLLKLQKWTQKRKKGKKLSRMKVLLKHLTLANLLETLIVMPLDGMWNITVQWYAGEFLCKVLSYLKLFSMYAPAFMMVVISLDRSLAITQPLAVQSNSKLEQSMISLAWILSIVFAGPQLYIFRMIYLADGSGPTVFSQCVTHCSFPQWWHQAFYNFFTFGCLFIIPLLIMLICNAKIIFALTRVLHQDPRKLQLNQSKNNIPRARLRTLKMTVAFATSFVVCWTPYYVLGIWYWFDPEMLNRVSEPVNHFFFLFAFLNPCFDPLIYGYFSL
Summary of the method: (§1)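 Bound label captured on 0.1% polyethyleneimine-treated GF/C filters, washed three times with PBS, counted. IC50 derived; identical set-up for every species.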

[1] = system: LH levels in castrated rats; test: Castrated male rat model, LH suppression; type: in vivo; settings: 10 mg/kg iv
Source text: Experimental Protocol: Male Sprague-Dawley (225-250 g) rats were castrated and allowed 10 days postoperative recovery. Ten days post castration animals were instrumented with indwelling femoral venous and arterial catheters to facilitate remote infusions and blood sampling. On the day of the experiment, animals were allowed to acclimate to the procedure room while residing in their home cage. Basal blood samples were drawn from all animals. Following basal sampling, either vehicle (10% DMSO, 10% cremophor/saline), Antide (1.0 μg) or compound 11 (10 mg/kg) was administered intravenously. Blood samples were drawn 10, 60, 90, 120, 180, 240 minutes after injections. Blood was centrifuged, serum collected and stored in −70° freezer until assayed. Serum samples were analyzed using DSL-4600 ACTIVE LH coated-tube immunoradiometric assay kit from Diagnostic Systems Laboratories, Inc.
Surgical removal of the gonads removes circulating testosterone and eliminates the negative feedback of testosterone on the hypothalamus. […] This model seems suitable for evaluating small molecule GnRH antagonists.
Male Sprague-Dawley ([…]) rats were castrated via the scrotal approach under halothane anesthesia. Animals were allowed 14 days post operative recovery prior to study. Thirteen days following castration, animals were anesthetized with halothane and instrumented with indwelling jugular vein cannula. Details of the cannulation procedure have been described previously {Harms and Ojeda, 1974)}. On study day, animals were allowed to acclimate to the procedure room while residing in their home cage. Basal blood samples were drawn from all animals. Immediately following basal sampling, vehicle or test compounds were administered by various routes. The routes of administration employed were intravenous (iv), intramuscular (im), intraperitoneal (ip), subcutaneous (sc) and oral (po). Blood samples were drawn into heparin containing tubes at multiple time points post treatment. Blood was centrifuged immediately, plasma collected and stored in −20° freezer until assayed. Plasma samples were analyzed using DSL-4600 ACTIVE LH coated-tube immunoradiometric assay kit from Diagnostic Systems Laboratories, Inc.
Formulation #1 (denoted with superscript 1): 10% DMSO, 10% Cremophor EL and 80% physiological saline.
Formulation #2 (denoted with superscript 2): 10% Cremophor EL and 90% physiological saline.

[2] = Metabolism rate, pmol/min/mg at 1 μM, human; type: in vitro ADME; settings: 1 μM compound
[3] = Metabolism rate, pmol/min/mg at 1 μM, rat male; type: in vitro ADME; settings: 1 μM compound
[4] = Metabolism rate, pmol/min/mg at 1 μM, rat female; type: in vitro ADME; settings: 1 μM compound
rat GnRH receptor = target: T3, rat GnRH receptor (Rattus norvegicus, UniProt P30969); test: Radioligand binding, 125I-GnRH-A, rat pituitary membranes; set-up: membranes were prepared from rat pituitary; from tissue; host or cells: rat pituitary; settings: read-out: rGnRH IC50
T3 sequence (P30969 1-327): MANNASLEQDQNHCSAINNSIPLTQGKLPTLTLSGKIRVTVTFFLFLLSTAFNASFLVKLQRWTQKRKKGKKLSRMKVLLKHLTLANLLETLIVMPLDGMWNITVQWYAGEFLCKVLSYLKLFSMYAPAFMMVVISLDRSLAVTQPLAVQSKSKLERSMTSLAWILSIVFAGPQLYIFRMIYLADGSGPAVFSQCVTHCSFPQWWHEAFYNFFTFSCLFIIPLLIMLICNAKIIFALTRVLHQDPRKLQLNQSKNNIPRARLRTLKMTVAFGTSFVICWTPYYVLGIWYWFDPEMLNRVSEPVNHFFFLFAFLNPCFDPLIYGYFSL
Summary of the method: as §1

bovine GnRH receptor = target: T4, bovine GnRH receptor (Bos taurus, UniProt P32236); test: Radioligand binding, 125I-GnRH-A, bovine pituitary membranes; settings: read-out: bGnRH IC50
T4 construct: membranes were prepared from bovine pituitary; from tissue; host or cells: bovine pituitary
T4 sequence (P32236 1-328): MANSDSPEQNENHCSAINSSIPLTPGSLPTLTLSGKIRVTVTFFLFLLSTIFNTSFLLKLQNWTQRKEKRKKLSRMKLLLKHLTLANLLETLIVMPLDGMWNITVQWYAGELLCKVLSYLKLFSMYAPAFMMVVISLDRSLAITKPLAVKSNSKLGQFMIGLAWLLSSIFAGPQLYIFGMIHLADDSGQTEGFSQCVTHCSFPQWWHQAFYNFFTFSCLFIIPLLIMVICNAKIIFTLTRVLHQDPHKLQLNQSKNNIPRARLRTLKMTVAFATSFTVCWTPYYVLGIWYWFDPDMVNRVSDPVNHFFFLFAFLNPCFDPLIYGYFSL
Experimental: All compounds were diluted in 1% DMSO (final assay concentration) in binding assay buffer. […] Reactions were terminated by rapid filtration onto 96-well Packard GF/C filters soaked in 0.1% polyethyleneimine. Filters were washed three times with PBS buffer, dried and counted on a Packard Topcount by liquid scintillation counting.
Assay conditions were identical for assessing compound activities at other species. […] IC50 values for control peptides and test compounds were calculated utilizing GraphPad Prism™ software.
The reaction mixture was vortexed and incubated for 1 min at room temperature. After one min, the mixture was vortexed and allowed to incubate for an additional minute. 2 ml of 0.5 M acetic acid/1% BSA was added to the reaction tube and the mixture was added to a C18 Sep-Pak cartridge. The cartridge was washed with subsequent washes of 5 ml H2O and 5 ml 0.5M acetic acid and then eluted with 5×1 ml of 60% CH3CN/40% 0.5M acetic acid. The eluate was diluted with 3× volume of HPLC buffer A (0.1% TFA in H2O) and loaded onto a C18 column. […] The radioactive fractions (750 ed/fraction) are collected into clean polypropylene tubes containing 100 μl of 10% BSA. Fractions were assessed for biological activity by radioligand binding.

hGnRH receptor = target: T5, hGnRH receptor (Homo sapiens, UniProt P30968); test: Total inositol phosphates measurement, 293 cells containing the hGnRH receptor; type: cell-based; settings: no species or readout annotated
T5 construct: expressed in transfected cells; host or cells: HEK 293 (hGnRH-R/293, from Dr. Stuart Sealfon)
T5 sequence (P30968 1-328): T1 sequence (P30968 1-328)
Experimental: To assess the activity of the compounds as agonists or antagonists, an assay measuring accumulation of total inositol phosphates was employed. 293 cells containing the hGnRH receptor were plated onto 24-well plates (approximately 200,000 cells/well) using DMEM media. […] The medium was aspirated and the cells rinsed with serum-free DMEM. The medium was aspirated and the cells were then treated with test compounds or vehicle for 30 minutes at 37° C. […] The media was replaced with ice-cold 10 mM formic acid, which stopped the reaction and also served to extract cellular lipids. Inositol phosphates were separated by ion-exchange chromatography on Dowex columns, which were washed with 2.5 mL of 10 mM myoinositol and 10 mM formic acid. The columns were then washed with 5 mL of 60 mM sodium formate and […], and total inositol phosphates were eluted with 5 mL 1M ammonium formate, 0.1 M formic acid. The column eluates were added to liquid scintillation vials containing 15 ml of scintillation cocktail and were counted by liquid scintillation counting.
This cell line was provided by Dr. Stuart Sealfon, Mount Sinai Medical School New York, N.Y. These cells were grown in DMEM supplemented with 0.2 g/L G418 100 U/ml penicillin/streptomycin and 10% FBS. Both GGH3 and hGnRH-R/293 cells were utilized for both for both total inositol phosphate measurement and for microphysiometry assessment of compound efficacy.

[5] = Pharmacokinetic studies / bioavailability in rats; type: in vivo, rat; settings: rat female; for Cmax / Tmax / half-life: female, rat, plasma; for Cmax / Tmax: po, 10 mg/kg, p.o. 10 mg/kg; for Cmax / Tmax / Fp.o.: 5 mg/ml solution in 10% DMSO 10% cremophor 80% saline

| Structure (SMILES) | IC50 (human GnRH receptor) [nM] | IC50 (mouse GnRH receptor) [nM] | Human pmol/min/mg 1 μM [2] [pmol/min/mg] | Rat male pmol/min/mg 1 μM [3] [pmol/min/mg] | Rat female pmol/min/mg 1 μM [4] [pmol/min/mg] | IC50 (rat GnRH receptor) [nM] | IC50 (bovine GnRH receptor) [nM] | GnRH functional (hGnRH receptor) | Cmax [5] [nM] | Tmax [5] [h] | half-life [5] [h] | Fp.o. [5] | % Max LH Suppression [1] [%] | time of % Max LH Suppression [1] [h] |
| --- | --- | --- | --- | --- | --- | --- | --- | --- | --- | --- | --- | --- | --- | --- |
| COc1cccc(OC)c1NC(=O)c1ccc(Cc2cc(C(C)(C)C)ccc2C)o1 [Compound 206] | 52 | 83 | 689 | 1794 | 330 | 23 | – | – | – | – | – | – | 51 | 1 |
| CCOC(=O)[C@H]1CC[C@H](CNC(=O)c2ccc(Cc3cc4c(cc3C)C(C)(C)CCC4(C)C)o2)CC1 [Compound 31] | 140 | 1880 | – | – | – | 2800 | 8900 | Antag- onist | – | – | – | – | – | – |
| Cc1ccc(C(C)(C)C)cc1Cc1ccc(C(=O)NCc2cccc(CNc3ccnc(NC[C@H]4CCCO4)n3)c2)o1 [Compound 212] | 80 | 62 | 322 | 3282 | 430 | 12 | – | – | 50 | 1 | 1.6 | 1% (10 mg/kg)^10 | – | – |
| COc1cc2c(cc1Cc1ccc(C(=O)NCc3cccc(CNc4ccnc(NC[C@H]5CCCO5)n4)c3)o1)C(C)(C)CCC2(C)C (stereo in doubt) [Compound 199] | 92 | 15 | 181 | 3387 | 181 | 9.6 | – | – | 80 | 4 | 1.5 | 10% (10 mg/kg)^10 | – | – |
| COc1cccc(OC)c1NC(=O)c1ccc(Cc2c(C)c(C)c(Br)c(C)c2C)o1 [Compound 226] | 240 | 720 | 369 | 990 | 173 | 2130 | – | – | 420 | 1 to 5 | 4.6 | 34% (10 mg/kg)^10 | – | – |

Further lines, with some results ahead:

| IC50 (human GnRH receptor) [nM] | IC50 (mouse GnRH receptor) [nM] | Human pmol/min/mg 1 μM [2] [pmol/min/mg] | Rat male pmol/min/mg 1 μM [3] [pmol/min/mg] | Rat female pmol/min/mg 1 μM [4] [pmol/min/mg] | IC50 (rat GnRH receptor) [nM] | IC50 (bovine GnRH receptor) [nM] | GnRH functional (hGnRH receptor) | Cmax [5] [nM] | Tmax [5] [h] | half-life [5] [h] | Fp.o. [5] | Structure (SMILES) | % Max LH Suppression [1] [%] | time of % Max LH Suppression [1] [h] |
| --- | --- | --- | --- | --- | --- | --- | --- | --- | --- | --- | --- | --- | --- | --- |
| 15 | 9.2 | 116 | 528 | 223 | 11 | – | – | 340 | 1 | 3 | 41% (10 mg/kg)^10 | COc1cc(OC)c(NC(=O)c2ccc(Cc3cc4c(cc3C)OCCC4(C)C)o2)c(OC)c1 [Compound 221] | – | – |
| 60 | 68 | 773 | 2988 | 338 | 51 | – | – | 340 | 1 | 1.4 | 34% (10 mg/kg)^10 | COc1cc(C)c(Cl)c(C)c1Cc1ccc(C(=O)Nc2c(OC)cccc2OC)o1 [Compound 233] | – | – |
| 27 | 14 | 641 | 320 | 227 | 57 | – | – | 70 | 0.5 | 2.4 | 2% (10 mg/kg)^10 | COc1cc(NS(C)(=O)=O)c(NC(=O)c2ccc(Cc3cc4c(cc3C)C(C)(C)CCC4(C)C)o2)c(OC)c1 [Compound 228] | – | – |
| 110 | 65 | 115 | 575 | 167 | 78 | – | – | 810 | 1.5 | 3.2 | 54% (10 mg/kg)^10 | COc1cc(OC)c(NC(=O)c2ccc(Cc3c(C)ccc4c3OCCC4(C)C)o2)c(OC)c1 [Compound 222] | – | – |

Source: patent US7101878B1 (Agouron Pharmaceuticals, Inc., priority 1998, dated 2006)
